By CC50 is commonly meant the concentration that lowers cell viability or growth by half.

The test system of one data set is HIV-1 (IIIB). Briefly: Antiviral assay in MT-4 cells (HIV MT-4 antiviral assay). The note with it: HIV-1 (IIIB) in MT-4 cells, 5 days incubation. In kind it is cell-based. In short, it runs like this:
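MT-4 cells infected with HIV-1 IIIB (1:250 diluted stock) and exposed to 1:3 serially diluted compound in RPMI with 10% FBS. Viability read by CellTiter-Glo luminescence after 5 days at 37° C; mock-infected cells and 5 μM AZT as controls.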

For the next data set, the system named is uninfected MT-4 cells. Briefly: Cytotoxicity assay in MT-4 cells. In kind it is cell-based, human. The note with it: uninfected MT-4 cells, 5 days incubation. Put shortly:
(§1)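 Infected MT-4 cells (HIV-1 IIIB, fresh 1:250 dilution of concentrated stock) or mock-infected cells exposed to compounds for 5 days at 37 °C. Viability by CellTiter-Glo luminescence; 5 μM AZT positive control, no-drug negative control. Uninfected cells used for cytotoxicity, with 10 μM puromycin as base-level cytotoxicity control.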

The next data set has as its system pLai RLuc reporter virus. Briefly: microbe, parasite or virus in culture. In kind it is cell-based, HIV. Put shortly:
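MT-4 cells pre-infected 2 h at 37 °C with pLai RLuc virus, then exposed to 1:3 serial dilutions of compound in RPMI/10% FBS with or without 50% human serum for 72 h at 37 °C. Renilla luminescence read-out; serum shift = EC50(HS/CCM)/EC50(CCM).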

Data set [1] in a line: Cytotoxicity assay in MT-4 cells. The note with it: human, uninfected MT-4 cells, 5 days incubation; read-out: CC50. In kind it is cell-based, human. In short, it runs like this:
as §1

The mark [2] stands for this setting: Human immunodeficiency virus 1, 72 h, read-out: Antiviral Serum Shift RLuc 50% HS, HS/CCM (RPMI media, 10% FBS, 50% HS, 1% P/S), 72-h incubation.
[3] abbreviates: Human immunodeficiency virus 1, 72 h, read-out: Antiviral Serum Shift RLuc CCM, CCM (RPMI media, 10% FBS, 1% P/S), 72-h incubation.
Setting [4] is: read-out: Antiviral Serum Shift RLuc 50% HS, HS/CCM (RPMI media, 10% FBS, 50% HS, 1% P/S), 72-h incubation.
[5] abbreviates: read-out: Antiviral Serum Shift RLuc CCM, CCM (RPMI media, 10% FBS, 1% P/S), 72-h incubation.
Where [6] appears, read: CCM (RPMI media, 10% FBS, 1% P/S), 72-h incubation, read-out: Antiviral Serum Shift RLuc CCM.
[7] abbreviates: HS/CCM (RPMI media, 10% FBS, 50% HS, 1% P/S), 72-h incubation, read-out: Antiviral Serum Shift RLuc 50% HS.

Like-named read-outs stand apart in the source and are kept apart here.

On to `O=C(NCc1ccc(F)cc1F)c1cn2c(c(O)c1=O)C(=O)N1CC2CCc2cc(F)c(F)cc21` (single isomer, unassigned) [Example 50-1], for which the EC50 came out at 1.39 nM in the data set with HIV-1 (IIIB), 0.948 nM in the data set with pLai RLuc reporter virus (setting [2]) and 0.265 nM in the data set on pLai RLuc reporter virus (setting [3]). Besides, the CC50 in the data set on uninfected MT-4 cells is greater than 13500 nM.

Consider `O=C(NCc1ccc(F)cc1F)c1cn2c(c(O)c1=O)C(=O)N1C[C@H](F)CC[C@H]2C1` (single isomer, unassigned) [Example 53-1], for which the EC50 in the data set on HIV-1 (IIIB) (read-out: EC50) was determined as 2.13 nM; in the data set on pLai RLuc reporter virus (setting [3]), 0.541 nM; in the data set with pLai RLuc reporter virus (setting [4]) it was 6.13 nM. Besides, it took 13200 nM to reach half-maximal cytotoxicity with uninfected MT-4 cells (CC50).

Regarding `O=C(NCc1ccc(F)cc1F)c1cn2c(c(O)c1=O)C(=O)N1C[C@H](F)CC[C@H]2C1` (single isomer, unassigned) [Example 53-4], the figures for the EC50 with HIV-1 (IIIB) (read-out: EC50), in the data set with pLai RLuc reporter virus (setting [4]) and with pLai RLuc reporter virus (setting [5]) were 4.72 nM, 18.3 nM and 0.696 nM, respectively. The 50% cytotoxic concentration (CC50) in the data set with uninfected MT-4 cells was greater than 44400 nM.

`O=C(NCc1ccc(F)cc1F)c1cn2c(c(O)c1=O)C(=O)N1CC2CCc2cc(F)ccc21` (single isomer, unassigned) [Example 55-2]: the results for the EC50 in the data set with HIV-1 (IIIB), in the data set with pLai RLuc reporter virus (setting [2]) and in the data set with pLai RLuc reporter virus (setting [3]) were 1.8 nM, 1.32 nM and 0.312 nM, respectively. Also, the 50% cytotoxic concentration (CC50) with uninfected MT-4 cells turned out to be 7330 nM.

On to `O=C(NCc1c(F)cc(F)cc1F)c1cn2c(c(O)c1=O)C(=O)N1CCCC(CF)C2C1` (single isomer, unassigned) [Example 194-2, 6-(fluoromethyl)-12-hydroxy-1,11-dioxo-N-(2,4,6-trifluorobenzyl)-1,4,5,6,7,11-hexahydro-3H-2,7-methanopyrido[1,2-a][1,4]diazonine-10-carboxamide], for which the results for the EC50 in the data set with HIV-1 (IIIB) (read-out: EC50), with pLai RLuc reporter virus (setting [4]) and with pLai RLuc reporter virus (setting [5]) were 1.5 nM, 2.99 nM and 0.378 nM, respectively. Also, it took 10500 nM to reach half-maximal cytotoxicity in the data set on uninfected MT-4 cells (CC50).

As to `O=C(NCc1c(F)cc(F)cc1F)c1cn2c(c(O)c1=O)C(=O)N1CCCC(CF)C2C1` (single isomer, unassigned) [Example 194-3, 6-(fluoromethyl)-12-hydroxy-1,11-dioxo-N-(2,4,6-trifluorobenzyl)-1,4,5,6,7,11-hexahydro-3H-2,7-methanopyrido[1,2-a][1,4]diazonine-10-carboxamide], the EC50 in the data set on HIV-1 (IIIB) (read-out: EC50) was determined as 1.28 nM; with pLai RLuc reporter virus (setting [4]), 139 nM; with pLai RLuc reporter virus (setting [5]), 0.554 nM. This compound displayed a CC50 with uninfected MT-4 cells of 11500 nM.

Consider `O=C(NCc1c(F)cc(F)cc1F)c1cn2c(c(O)c1=O)C(=O)N1CCCC(CF)C2C1` (single isomer, unassigned) [Example 194-4, 6-(fluoromethyl)-12-hydroxy-1,11-dioxo-N-(2,4,6-trifluorobenzyl)-1,4,5,6,7,11-hexahydro-3H-2,7-methanopyrido[1,2-a][1,4]diazonine-10-carboxamide], for which the EC50 with HIV-1 (IIIB) (read-out: EC50) was 1.75 nM; in the data set with pLai RLuc reporter virus (setting [4]), 3.48 nM; in the data set on pLai RLuc reporter virus (setting [5]) it was 0.397 nM. The compound also registered a CC50 with uninfected MT-4 cells of 11300 nM.

As to `CC1CCCN2CC1n1cc(C(=O)NCc3ccc(F)cc3F)c(=O)c(O)c1C2=O` (centres unmarked) [Example 17-2b, N-(2,4-difluorobenzyl)-12-hydroxy-6-methyl-1,11-dioxo-1,4,5,6,7,11-hexahydro-3H-2,7-methanopyrido[1,2-a][1,4]diazonine-10-carboxamide], the EC50 in the data set on HIV-1 (IIIB) (read-out: EC50) came out at 1.2 nM; with pLai RLuc reporter virus (setting [4]) it was 101 nM; in the data set with pLai RLuc reporter virus (setting [5]), 0.31 nM. Moreover, the CC50 in the data set with uninfected MT-4 cells turned out to be 11000 nM.

With `O=C(NCc1ccc(F)cc1F)c1cn2c(c(O)c1=O)C(=O)N1CCc3ccccc3[C@@H]2C1` [Example 64-1, (13R)—N-(2,4-difluorobenzyl)-4-hydroxy-3,5-dioxo-3,5,8,13-tetrahydro-7H-6,13-methanobenzo[g]pyrido[1,2-a][1,4]diazonine-2-carboxamide], the CC50 at 5 days in data set [1] was 14800 nM. This compound showed a CC50 with uninfected MT-4 cells of 12300 nM. Also, the EC50 with pLai RLuc reporter virus (setting [2]) came out at 3.31 nM; in the data set with pLai RLuc reporter virus (setting [3]), 0.319 nM.

In the case of `CC[C@@]12CCCCN(C1)C(=O)c1c(O)c(=O)c(C(=O)NCc3ccc(F)cc3F)cn12` [Example 134-2, (7R)—N-(2,4-difluorobenzyl)-7-ethyl-12-hydroxy-1,11-dioxo-1,4,5,6,7,11-hexahydro-3H-27-methanopyrido[1,2-a][1,4]diazonine-10-carboxamide], the EC50 in the data set with HIV-1 (IIIB) (read-out: EC50) is 5.7 nM. Moreover, the CC50 in the data set on uninfected MT-4 cells is 10600 nM.

With `O=C(NCc1c(F)cc(F)cc1F)c1cn2c(c(O)c1=O)C(=O)N1C[C@@H]2CCC[C@@H]1CF` [Example 180, (3R,7S)-3-(fluoromethyl)-12-hydroxy-1,11-dioxo-N-(2,4,6-trifluorobenzyl)-1,4,5,6,7,11-hexahydro-3H-2,7-methanopyrido[1,2-a][1,4]diazonine-10-carboxamide], the EC50 in the data set on HIV-1 (IIIB) (read-out: EC50) turned out to be 1.21 nM; with pLai RLuc reporter virus (setting [4]), 13.5 nM; in the data set on pLai RLuc reporter virus (setting [5]), 0.32 nM. The same compound displayed a CC50 in the data set with uninfected MT-4 cells of 10400 nM.

`O=C(NCc1ccc(F)cc1F)c1cn2c(c(O)c1=O)C(=O)N1C[C@@H]2CCC[C@@H]1CF` [Example 181, (3R,7S)—N-(2,4-difluorobenzyl)-3-(fluoromethyl)-12-hydroxy-1,11-dioxo-1,4,5,6,7,11-hexahydro-3H-2,7-methanopyrido[1,2-a][1,4]diazonine-10-carboxamide]: the EC50 in the data set on HIV-1 (IIIB) (read-out: EC50) turned out to be 1.08 nM; with pLai RLuc reporter virus (setting [4]), 7.65 nM; in the data set with pLai RLuc reporter virus (setting [5]) it was 0.385 nM. This compound also showed a CC50 with uninfected MT-4 cells of 9710 nM.

On to “(3S,7S)-5-fluoro-12-hydroxy-3-methyl-1,11-dioxo-N-(2,4,6-trifluorobenzyl)-1,4,7,11-tetrahydro-3H-2,7-methanopyrido[1,2-a][1,4]diazonine-10-carboxamide [Example 118-1]”, for which the EC50 is 0.79 nM in the data set with HIV-1 (IIIB) (read-out: EC50), 0.296 nM with pLai RLuc reporter virus (setting [6]) and 0.881 nM in the data set on pLai RLuc reporter virus (setting [7]). For the same compound, the CC50 with uninfected MT-4 cells worked out at 11500 nM.

Take “(3S,7S)-5-fluoro-12-hydroxy-3-methyl-1,11-dioxo-N-(2,4,6-trifluorobenzyl)-1,6,7,11-tetrahydro-3H-2,7-methanopyrido[1,2-a][1,4]diazonine-10-carboxamide [Example 118-2]”: the EC50 stood at 1.17 nM in the data set on HIV-1 (IIIB) (read-out: EC50), 0.249 nM with pLai RLuc reporter virus (setting [6]) and 0.507 nM with pLai RLuc reporter virus (setting [7]). Half-maximal cytotoxicity in the data set with uninfected MT-4 cells (CC50) was put at 11600 nM.

Regarding “(7R,13R)—N-(2,4-difluorobenzyl)-12-hydroxy-13-methyl-1,11-dioxo-1,4,5,6,7,11-hexahydro-3H-2,7-methanopyrido[1,2-a][1,4]diazonine-10-carboxamide [Example 7]”, the EC50 in the data set with HIV-1 (IIIB) (read-out: EC50) worked out at 19.9 nM. Also, the midpoint of cytotoxicity in the data set with uninfected MT-4 cells, the CC50, lay at 25400 nM.

The values above are taken from patent US12227520B2 (priority 2019, dated 2025).
